The target in one assay is c-Kit kinase (Homo sapiens (Human), UniProt P10721). As to the kind of experiment: c-Kit biochemical assay (AlphaScreen kinase activity). The procedure, abridged:
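AlphaScreen: c-Kit phosphorylates biotin-(E4Y)3 (100 nM) at 10 μM ATP, pH 7.2 HEPES buffer with Mg/Mn, 5% DMSO, 1 h room temperature; streptavidin donor and PY30 acceptor beads detect product. Second format: 100 μM ATP, 30 nM biotin-(E4Y)10, pH 7.5. IC50 from 8-point 1:3 dilution curves.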
On the technique in general: Bead proximity is the source of the signal in Alpha formats.

Assay [1] deals with BaF3-FL KIT D816V or BaF3-FL KIT V560G/D816V cell line. Put plainly: Cell-based assays of c-Kit mutant kinase activity (cell proliferation, ATPlite). The conditions noted are these: at least one of the c-kit cell assays of Example 7. The procedure, abridged:
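BaF3 cells dependent on transfected full-length human KIT D816V or V560G/D816V (pCI-Neo, CMV promoter) were seeded at 1×10^4 cells/well and exposed to 8-point 1:3 dilutions from 10 μM top (0.2% DMSO) for three days at 37° C. ATPlite luminescence gave cell number; IC50 from concentration-response.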
A general note: In ATP-based viability assays light output follows the ATP content of the culture.

c-Kit kinase, sequence (P10721 26-976): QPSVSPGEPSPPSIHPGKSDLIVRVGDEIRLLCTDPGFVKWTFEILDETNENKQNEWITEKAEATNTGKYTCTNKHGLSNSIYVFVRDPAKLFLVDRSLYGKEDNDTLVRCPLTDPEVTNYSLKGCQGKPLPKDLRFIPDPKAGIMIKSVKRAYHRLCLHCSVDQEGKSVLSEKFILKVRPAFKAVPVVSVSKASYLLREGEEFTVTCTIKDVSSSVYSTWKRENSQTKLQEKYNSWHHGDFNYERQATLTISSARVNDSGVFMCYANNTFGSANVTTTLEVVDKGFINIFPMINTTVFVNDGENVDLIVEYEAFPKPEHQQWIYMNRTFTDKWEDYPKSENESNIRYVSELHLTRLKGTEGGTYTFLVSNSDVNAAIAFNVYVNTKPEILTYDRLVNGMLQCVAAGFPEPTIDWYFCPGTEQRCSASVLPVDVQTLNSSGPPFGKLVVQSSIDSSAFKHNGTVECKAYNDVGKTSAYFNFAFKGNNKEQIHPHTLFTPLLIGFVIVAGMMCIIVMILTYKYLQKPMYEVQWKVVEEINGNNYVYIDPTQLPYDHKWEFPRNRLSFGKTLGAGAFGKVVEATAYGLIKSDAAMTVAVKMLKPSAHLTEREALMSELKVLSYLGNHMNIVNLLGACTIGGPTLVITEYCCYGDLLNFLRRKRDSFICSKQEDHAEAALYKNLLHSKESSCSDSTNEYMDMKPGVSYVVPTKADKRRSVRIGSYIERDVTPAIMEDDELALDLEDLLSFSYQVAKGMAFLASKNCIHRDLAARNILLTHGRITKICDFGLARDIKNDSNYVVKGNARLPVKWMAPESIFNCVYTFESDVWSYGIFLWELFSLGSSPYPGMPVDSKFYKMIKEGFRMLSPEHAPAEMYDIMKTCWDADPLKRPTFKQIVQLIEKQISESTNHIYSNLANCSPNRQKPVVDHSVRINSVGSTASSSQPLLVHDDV

Take `COc1cc(-c2cc3c(N4CCC(c5nc(C)c(-c6cccc(OC(F)(F)F)c6)[nH]5)CC4)ncnc3[nH]2)ccn1` [P-3014, 6-(2-methoxy-4-pyridyl)-4-[4-[4-methyl-5-[3-(trifluoromethoxy)phenyl]-1H-imidazol-2-yl]-1-piperidyl]-7H-pyrrolo[2,3-d]pyrimidine]: the half-inhibitory concentration (IC50) (as a rule, the concentration that gives 50% inhibition) was 1 to 10 µM on c-Kit kinase and under 10000 nM in assay [1].
On the same counts, the results for `COc1ccc(-c2[nH]c(C3CCN(c4ncnc5[nH]c(-c6ccc(C#N)cc6)cc45)CC3)nc2C)cc1` [P-3015, 4-[4-[4-[5-(4-methoxyphenyl)-4-methyl-1H-imidazol-2-yl]-1-piperidyl]-7H-pyrrolo[2,3-d]pyrimidin-6-yl]benzonitrile] are 0.0001 to 1 µM and under 10000 nM.
In the case of `Cc1nc(C2CCN(c3ncnc4[nH]c(-c5ccc(C#N)cc5)cc34)CC2)[nH]c1-c1cccc(F)c1` [P-3016, 4-[4-[4-[5-(3-fluorophenyl)-4-methyl-1H-imidazol-2-yl]-1-piperidyl]-7H-pyrrolo[2,3-d]pyrimidin-6-yl]benzonitrile], the 50% inhibitory concentration (IC50) was 1 to 10 µM on c-Kit kinase and under 10000 nM in assay [1].
For `COc1ccc(-c2[nH]c(C3CCN(c4ncnc5[nH]c(-c6ccnc(OC)c6)cc45)CC3)nc2C)cc1` [P-3017, 4-[4-[5-(4-methoxyphenyl)-4-methyl-1H-imidazol-2-yl]-1-piperidyl]-6-(2-methoxy-4-pyridyl)-7H-pyrrolo[2,3-d]pyrimidine], in that order: 0.0001 to 1 µM and under 10000 nM.
For `COc1ccc(-c2[nH]c(C3CCN(c4ncnc5[nH]c(-c6ccc(C#N)cc6)cc45)CC3)nc2C)cc1F` [P-3018, 4-[4-[4-[5-(3-fluoro-4-methoxy-phenyl)-4-methyl-1H-imidazol-2-yl]-1-piperidyl]-7H-pyrrolo[2,3-d]pyrimidin-6-yl]benzonitrile], the half-inhibitory concentration (IC50) is 1 to 10 µM on c-Kit kinase and under 10000 nM in assay [1].
On the same counts, the results for `CCOc1ccc(-c2[nH]c(C3(C)CCN(c4ncnc5[nH]c(-c6ccc(OC)nc6)cc45)CC3)nc2C)cc1` [P-3171, 4-[4-[5-(4-ethoxyphenyl)-4-methyl-1H-imidazol-2-yl]-4-methyl-1-piperidyl]-6-(6-methoxy-3-pyridyl)-7H-pyrrolo[2,3-d]pyrimidine] are 0.0001 to 1 µM and under 10000 nM.
On the same counts, the results for `COc1ccc(-c2[nH]c(C3(C)CCN(c4ncnc5[nH]c(-c6ccc(C#N)cc6)cc45)CC3)nc2C)cn1` [P-3172, 4-[4-[4-[5-(6-methoxy-3-pyridyl)-4-methyl-1H-imidazol-2-yl]-4-methyl-1-piperidyl]-7H-pyrrolo[2,3-d]pyrimidin-6-yl]benzonitrile] are 0.0001 to 1 µM and under 10000 nM.
For `COc1ncc(-c2[nH]c(C3CCN(c4ncnc5[nH]c(-c6ccc(C#N)cc6)cc45)CC3)nc2C)cc1F` [P-3173, 4-[4-[4-[5-(5-fluoro-6-methoxy-3-pyridyl)-4-methyl-1H-imidazol-2-yl]-1-piperidyl]-7H-pyrrolo[2,3-d]pyrimidin-6-yl]benzonitrile], in that order: 0.0001 to 1 µM and under 10000 nM.
Take `Cc1nc(C2(C)CCN(c3ncnc4[nH]c(-c5cnn(C(F)F)c5)cc34)CC2)[nH]c1-c1ccc(Cl)cc1` [P-3175, 4-[4-[5-(4-chlorophenyl)-4-methyl-1H-imidazol-2-yl]-4-methyl-1-piperidyl]-6-[1-(difluoromethyl)pyrazol-4-yl]-7H-pyrrolo[2,3-d]pyrimidine]: the 50% inhibitory concentration (IC50) against c-Kit kinase was 0.0001 to 1 µM; in assay [1], under 10000 nM.
On the same counts, the results for `COc1ccc(-c2cc3c(N4CCC(C)(c5nc(C)c(-c6ccc(Cl)cc6)[nH]5)CC4)ncnc3[nH]2)cn1` [P-3176, 4-[4-[5-(4-chlorophenyl)-4-methyl-1H-imidazol-2-yl]-4-methyl-1-piperidyl]-6-(6-methoxy-3-pyridyl)-7H-pyrrolo[2,3-d]pyrimidine] are 0.0001 to 1 µM and under 10000 nM.
For the compound `Cc1nc(C2(C)CCN(c3ncnc4[nH]c(-c5ccc(C#N)cc5)cc34)CC2)[nH]c1-c1ccc(C(F)(F)F)cc1` [P-3177, 4-[4-[4-methyl-4-[4-methyl-5-[4-(trifluoromethyl)phenyl]-1H-imidazol-2-yl]-1-piperidyl]-7H-pyrrolo[2,3-d]pyrimidin-6-yl]benzonitrile], the results for the IC50 (against c-Kit kinase; in assay [1]) were 0.0001 to 1 µM and under 10000 nM, respectively.
As to `COc1ccc(-c2cc3c(N4CCC(C)(c5nc(C)c(-c6ccc(C(F)(F)F)cc6)[nH]5)CC4)ncnc3[nH]2)cn1` [P-3178, 6-(6-methoxy-3-pyridyl)-4-[4-methyl-4-[4-methyl-5-[4-(trifluoromethyl)phenyl]-1H-imidazol-2-yl]-1-piperidyl]-7H-pyrrolo[2,3-d]pyrimidine], the IC50 against c-Kit kinase is 0.0001 to 1 µM; in assay [1] it was under 10000 nM.
On the same counts, the results for `Cc1nc(C2(C)CCN(c3ncnc4[nH]c(-c5cnn(C(F)F)c5)cc34)CC2)[nH]c1-c1ccc(C(F)(F)F)cc1` [P-3179, 6-[1-(difluoromethyl)pyrazol-4-yl]-4-[4-methyl-4-[4-methyl-5-[4-(trifluoromethyl)phenyl]-1H-imidazol-2-yl]-1-piperidyl]-7H-pyrrolo[2,3-d]pyrimidine] are 0.0001 to 1 µM and under 10000 nM.
On the same counts, the results for `Cc1nc(C2(C)CCN(c3ncnc4[nH]c(-c5ccc(C#N)cc5)cc34)CC2)[nH]c1-c1ccc(Cl)cc1` [P-3180, 4-[4-[4-[5-(4-chlorophenyl)-4-methyl-1H-imidazol-2-yl]-4-methyl-1-piperidyl]-7H-pyrrolo[2,3-d]pyrimidin-6-yl]benzonitrile] are 0.0001 to 1 µM and under 10000 nM.
As to `COc1ncc(-c2[nH]c(C3(C)CCN(c4ncnc5[nH]c(-c6ccc(C#N)cc6)cc45)CC3)nc2C)cc1F` [P-3181, 4-[4-[4-[5-(5-fluoro-6-methoxy-3-pyridyl)-4-methyl-1H-imidazol-2-yl]-4-methyl-1-piperidyl]-7H-pyrrolo[2,3-d]pyrimidin-6-yl]benzonitrile], the concentration for half-maximal inhibition (IC50) on c-Kit kinase is 0.0001 to 1 µM; in assay [1], under 10000 nM.
On the same counts, the results for `COc1ccc(-c2[nH]c(C3(C)CCN(c4ncnc5[nH]c(-c6cnn(C(F)F)c6)cc45)CC3)nc2C)cn1` [P-3182, 6-[1-(difluoromethyl)pyrazol-4-yl]-4-[4-[5-(6-methoxy-3-pyridyl)-4-methyl-1H-imidazol-2-yl]-4-methyl-1-piperidyl]-7H-pyrrolo[2,3-d]pyrimidine] are 0.0001 to 1 µM and under 10000 nM.
On the same counts, the results for `COc1ccc(-c2[nH]c(C3(C)CCN(c4ncnc5[nH]c(C)cc45)CC3)nc2C)cc1F` [P-3183, 4-[4-[5-(3-fluoro-4-methoxy-phenyl)-4-methyl-1H-imidazol-2-yl]-4-methyl-1-piperidyl]-6-methyl-7H-pyrrolo[2,3-d]pyrimidine] are 0.0001 to 1 µM and under 10000 nM.
For `Cc1cc2c(N3CCC(C)(c4nc(C)c(-c5ccc(C(F)F)cc5)[nH]4)CC3)ncnc2[nH]1` [P-3184, 4-[4-[5-[4-(difluoromethyl)phenyl]-4-methyl-1H-imidazol-2-yl]-4-methyl-1-piperidyl]-6-methyl-7H-pyrrolo[2,3-d]pyrimidine], in that order: 0.0001 to 1 µM and under 10000 nM.
With `COc1ncc(-c2nc(C3(C)CCN(c4ncnc5[nH]c(C)cc45)CC3)[nH]c2C)cc1F` [P-3185, 4-[4-[4-(5-fluoro-6-methoxy-3-pyridyl)-5-methyl-1H-imidazol-2-yl]-4-methyl-1-piperidyl]-6-methyl-7H-pyrrolo[2,3-d]pyrimidine], the concentration for half-maximal inhibition (IC50) against c-Kit kinase is 1 to 10 µM; in assay [1] it was under 10000 nM.

The values are drawn from patent US9771369B2, “Compounds and methods for kinase modulation, and indications therefor” (Plexxikon Inc., priority 2014, dated 2017).
